Test results: ChEMBL document CHEMBL2021870, “Saponins can perturb biologic membranes and reduce the surface tension of aqueous solutions: a correlation?” (Bioorg Med Chem, 2012)

Experiments:
[1] = Critical micellar concentration of the compound in 0.1 M PBS after 10 mins by Wilhelmy plate method using tensitometer; format: physicochemical; settings: buffer
ECV-304 [2] = assay: Cytotoxicity against human ECV304 cells after 72 hrs by Hoechst 33258 staining based fluorescence assay; format: functional, cell-based; settings: ECV-304, 72 h
[3] = Reduction in surface tension in 0.1 M PBS after 10 mins by Wilhelmy plate method using tensitometer; format: physicochemical
ECV-304 [4] = assay: Membranolytic activity in human ECV304 cells assessed as leakage of intracellular lactate dehydrogenase after 2 hrs by spectrophotometry; format: functional, cell-based; settings: ECV-304, 2 h

Structure (SMILES)	CMC [1] [µM]	IC50 (ECV-304 [2]) [µM]	EC50 at 10 min [3] [µM]	IC50 (ECV-304 [4]) [µM]
C[C@@H]1O[C@@H](O[C@H]2[C@H](O[C@H]3CC[C@@]4(C)[C@@H](CC[C@]5(C)[C@@H]4CC=C4[C@@H]6CC(C)(C)CC[C@]6(C(=O)O)CC[C@]45C)[C@]3(C)CO)OC[C@H](O)[C@@H]2O)[C@H](O)[C@H](O)[C@H]1O [ALPHA-HEDERIN]	13	35	4	29
C[C@@H]1CC[C@@]2(OC1)O[C@H]1[C@@H](O)[C@H]3[C@@H]4CC[C@H]5C[C@@H](O[C@@H]6O[C@H](CO)[C@H](O[C@@H]7O[C@H](CO)C(O)[C@H](O[C@@H]8OC[C@@H](O)[C@H](O)[C@H]8O)[C@H]7O[C@@H]7O[C@H](CO)[C@H](O)[C@H](O[C@@H]8O[C@H](CO)[C@@H](O)[C@H](O)[C@H]8O)[C@H]7O)[C@H](O)[C@H]6O)[C@H](O)C[C@]5(C)[C@H]4CC[C@]3(C)[C@H]1[C@@H]2C (some centres undefined) [DIGITONIN]	163	13	8	15
C[C@@H]1O[C@@H](O[C@H]2[C@H](O[C@H]3CC[C@@]4(C)[C@@H](CC[C@]5(C)[C@@H]4CC=C4[C@@H]6CC(C)(C)CC[C@]6(C(=O)O[C@@H]6O[C@H](CO[C@@H]7O[C@H](CO)[C@@H](O[C@@H]8O[C@@H](C)[C@H](O)[C@@H](O)[C@H]8O)[C@H](O)[C@H]7O)[C@@H](O)[C@H](O)[C@H]6O)CC[C@]45C)[C@]3(C)CO)OC[C@H](O)[C@@H]2O)[C@H](O)[C@H](O)[C@H]1O [KALOPANAXSAPONIN B]	82	> 164	10	> 164
CC(C)=CCC[C@](C)(O)[C@H]1CC[C@]2(C)[C@@H]1[C@H](O)C[C@@H]1[C@@]3(C)CC[C@H](O)C(C)(C)[C@@H]3[C@@H](O[C@@H]3O[C@H](CO)[C@@H](O)[C@H](O)[C@H]3O[C@@H]3O[C@@H](C)[C@H](O)[C@@H](O)[C@H]3O)C[C@]12C [GINSENOSIDE RG2]	> 127	> 127	25	783
CC[C@H](CC[C@@H](C)[C@H]1CC[C@H]2[C@@H]3CC=C4C[C@@H](O)CC[C@]4(C)[C@H]3CC[C@]12C)C(C)C [BETA-SITOSTEROL]	241	61	19	472
CC1(C)[C@@H](O)CC[C@]2(C)[C@H]3C(=O)C=C4[C@@H]5C[C@@](C)(C(=O)O)CC[C@]5(C)CC[C@@]4(C)[C@]3(C)CC[C@@H]12 [ENOXOLONE]	106	101	16	292
